Measured values taken from patent publication US20110166223A1, “METHODS OF INHIBITING FGFR3 SIGNALING” (CEDARS-SINAI MEDICAL CENTER, priority 2008, published 2011).
Where two headings read alike, the source gives them in different places.

Columns and labels:
[1] = system: FGF2/FGFR3-mediated extracellular matrix loss in RCS chondrocytes; assay: [35S]sulfate labeling assay in RCS chondrocytes; assay type: cell-based, rat; conditions: FGF2 5 ng/ml, NF449 20 μM, 72 hours, FIG. 2b
Procedure: For Alcian blue staining, growing RCS cultures were treated with FGF2 (5 ng/ml) alone or in the presence of NF449 (20 μM) for 72 hours, fixed with 4% paraformaldehyde and stained for 30 minutes with Alcian blue. For quantification of the FGF2/FGFR3-mediated extracellular matrix loss, RCS chondrocytes were treated with FGF2 (5 ng/ml) and NF449 (20 μM) for 72 hours in the presence of 10 μCi/ml of [^35S]sulfate (Perkin Elmer, Boston, Mass.). Following the cultivation period, cells were harvested and the incorporated radioactivity was determined by liquid scintillation.
Apart from the growth arrest, aberrant FGFR3 signaling in chondrocytes leads to the loss of their extracellular matrix, rich in sulfated proteoglycans, due to inhibition of matrix synthesis as well as degradation of the existing matrix. The inventors therefore evaluated whether NF449 rescues the extracellular matrix loss induced by FGFR3 activation. […] Similar to previous findings, this matrix was lost after the 72-hours of FGF2 treatment. […] To further confirm this observation, cells were incubated with [^35S]sulfate for 72 hours to label the extracellular matrix and determined the effect of FGF2 and NF449 on the cell-bound radioactivity.

[2] = target: T1, recombinant tyrosine kinase (TK) domain of FGFR3 (Homo sapiens, UniProt P22607); assay: Cell-free FGFR3 kinase assay with STAT1 as substrate; assay type: biochemical; conditions: for effect on FGFR3 kinase activity (in words): added directly to the kinase reaction, FIG. 4
T1 construct: recombinant tyrosine kinase (TK) domain of FGFR3 (Glu-322-Thr-806; Cell Signaling); purchased Cell Signaling
Procedure: FIG. 4, in accordance with an embodiment herein, depicts 4,4′,4″,4′″-[carbonyl-bis[imino-5,1,3-benzenetriyl bis-{carbonylimino}]]tetrakis-{benzene-1,3-disulfonic acid} inhibits FGFR3 activity in a kinase assay. (a, b) Cell-free kinase assays were carried out as described herein, with recombinant tyrosine kinase (TK) domain of FGFR3 as a kinase, recombinant STAT1 as a substrate, and NF449 added directly to the kinase reaction. FGFR3-mediated phosphorylation of STAT1 was detected by WB with P-STAT1 (Y^701) antibody. The membrane was reprobed with FGFR3 and STAT1 antibodies to control for kinase and substrate quantity. The sample with ATP omitted serves as a negative control for the kinase reaction. Note the FGFR3-mediated phosphorylation of STAT1 is inhibited by 4,4′,4″,4′″-[carbonyl-bis[imino-5,1,3-benzenetriyl bis-{carbonylimino}]]tetrakis-{benzene-1,3-disulfonic acid}. The P-STAT1 and STAT1 signal was quantified by densitometry and expressed as a ratio between P-STAT1 and STAT1 signal for each given sample (b, lower graph). (c) The FGFR3 kinase assay was carried-out as described in (a) with 4,4′,4″,4′″-[carbonyl-bis[imino-5,1,3-benzenetriyl bis-{carbonylimino}]]tetrakis-{benzene-1,3-disulfonic acid}, 8,8′-[carbonylbis[imino-3,1-phenylenecarbonylimino{4-methyl-3,1-phenylene}carbonylimino]]bis-1,3,5-naphthalenetrisulfonic acid or 8,8′-[carbonylbis[imino-3,1-phenylene]]bis-{1,3,5-naphthalenetrisulfonic acid} added to the kinase reaction. Note the differential effects of 8,8′-[carbonylbis[imino-3,1-phenylenecarbonylimino{4-methyl-3,1-phenylene}carbonylimino]]bis-1,3,5-naphthalenetrisulfonic acid and 8,8′-[carbonylbis[imino-3,1-phenylene]]Bis-{1,3,5-naphthalenetrisulfonic acid} on the FGFR3-mediated phosphorylation of STAT1, which corresponds to their activity in the RCS growth-arrest experiment (lower graph). Data are an average from four wells with the indicated standard deviation. Statistically significant rescue of the growth arrest is indicated (Student's I-test; *-p<0.01).
OPM2 and KMS11 cells were lysed in ice-cold immunoprecipitation buffer (50 mM Tris-HCl pH 7.4, 150 mM NaCl, 0.5% NP-40, 1 mM EDTA, 25 mM NaF) supplemented with proteinase inhibitors and 10 mM sodium orthovanadate. Protein samples were resolved by SDS-PAGE and transferred onto a PVDF membrane. The following antibodies were used: Erk1/2, P-Erk1/2^T202/Y204, STAT1, P-STAT1^Y701 (Cell Signaling, Beverly, Mass.) and FGFR3 (Santa Cruz Biotechnology, Santa Cruz, Calif.). Western blotting signal was quantified by determining the integrated optical density (I.O.D.) of a given band using Scion Image software (Scion Corporation, Frederick, Mass.). Immunoprecipitations and FGFR3 kinase assays were performed as described. Briefly, the pRK7 vector encoding C-terminally FLAG-tagged K650E-FGFR3 was transfected into CHO cells using FuGENE6 reagent according to the manufacturer's protocol (Roche Applied Science, Indianapolis, Ind.). 48 hours after transfection, cells were treated with 20 ng/ml of FGF2 for 15 minutes and K650E-FGFR3 was immunoprecipitated from 800 μg of cell lysate protein using 4 μg of anti-FLAG antibody (Sigma-Aldrich, St. Louis, Mo.). Cells transfected with a plasmid encoding green fluorescent protein (pCCEY) serve as a negative control for the immunoprecipitation. Immunocomplexes were washed two times with kinase buffer (60 mM HEPES-NaOH pH 7.5, 3 mM MgCl2, 3 mM MnCl2, 3 μM Na3VO4, 1.2 mM dithiothreitol), and the kinase reactions were performed for 30 minutes at 30° C. in the presence of 2.5 μg of polyethylene glycol, 10 μM ATP, 300 ng of recombinant STAT1 (Active Motif, Carlsbad, Calif.) as a substrate, and NF449 added directly to the kinase reaction. Kinase assays utilizing recombinant tyrosine kinase (TK) domain of FGFR3 (Glu-322-Thr-806; Cell Signaling) were carried-out similarly, with 300 ng of kinase used in 50 μl reaction, and suramin, NF449 and NF023 added directly to the kinase reaction. […]

[3] = system: FGF2/FGFR3-mediated growth-arrest of rat chondrosarcoma (RCS) cells; conditions: for effect on FGF2/FGFR3-mediated growth arrest (in words): FIGS. 1, 4c
Text: In this assay, the FGF2/FGFR3-mediated growth-arrest of rat chondrosarcoma (RCS) cells is used as a reporter, thus allowing for elimination of toxic compounds as false-positive hits (Krejci, et al., Invest New Drugs 2007, 25: 391-395).
Rat chondrosarcoma chondrocytes (RCS), chinese hamster ovary (CHO) cells and MM cell lines OPM2 and KMS11 were propagated in DMEM, Opti-MEM or RPMI media (Gibco, Gaitherbsburg, Md.), supplemented with 10% fetal bovine serum (Atlanta Biological, Nordeross, Ga.) and antibiotics. […] For the RCS growth-arrest experiments shown at FIGS. 1 and 4c, 1×10^4 RCS chondrocytes were seeded in 24-well tissue culture plates (Costar, Cambridge, Mass.), treated as indicated for 72 hours, and counted. FGF2 was obtained from R&D Systems (Minneapolis, Minn.); C-natriuretic peptide, suramin, NF023 and NF449 were from Calbiochem (San Diego, Calif.).

[4] = target: GSA subunit (Homo sapiens, UniProt P63092); conditions: Hohenegger, et al., 1998; cited from earlier work
[5] = listed as 4,4′,4″,4′″-[carbonyl-bis[imino-5,1,3-benzenetriyl bis-{carbonylimino}]]tetrakis

T1 sequence (P22607 322-806): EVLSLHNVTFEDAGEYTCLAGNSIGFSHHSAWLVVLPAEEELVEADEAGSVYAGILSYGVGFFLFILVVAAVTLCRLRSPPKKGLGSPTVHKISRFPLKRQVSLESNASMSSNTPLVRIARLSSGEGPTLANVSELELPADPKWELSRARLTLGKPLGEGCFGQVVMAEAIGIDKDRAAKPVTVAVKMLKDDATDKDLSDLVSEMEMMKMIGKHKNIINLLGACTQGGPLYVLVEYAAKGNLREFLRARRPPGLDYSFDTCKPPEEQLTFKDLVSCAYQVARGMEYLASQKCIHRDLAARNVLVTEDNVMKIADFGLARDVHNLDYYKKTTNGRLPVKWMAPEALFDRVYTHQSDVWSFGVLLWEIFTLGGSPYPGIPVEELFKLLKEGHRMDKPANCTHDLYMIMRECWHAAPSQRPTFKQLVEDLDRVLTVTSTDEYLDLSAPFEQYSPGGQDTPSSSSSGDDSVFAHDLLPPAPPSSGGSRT
Chain of GSA subunit (P63092 whole entry): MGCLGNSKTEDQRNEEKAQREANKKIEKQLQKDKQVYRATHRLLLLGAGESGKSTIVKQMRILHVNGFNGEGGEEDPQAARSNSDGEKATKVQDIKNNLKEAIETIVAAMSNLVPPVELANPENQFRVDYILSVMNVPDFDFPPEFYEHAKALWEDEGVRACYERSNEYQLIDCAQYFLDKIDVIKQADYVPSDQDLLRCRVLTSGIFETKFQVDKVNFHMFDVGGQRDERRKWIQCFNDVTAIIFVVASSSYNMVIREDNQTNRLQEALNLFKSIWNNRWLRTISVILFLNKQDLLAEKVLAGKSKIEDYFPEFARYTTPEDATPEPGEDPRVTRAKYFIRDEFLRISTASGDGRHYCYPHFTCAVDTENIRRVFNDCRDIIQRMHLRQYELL

O=C(Nc1cc(C(=O)Nc2ccc(S(=O)(=O)O)cc2S(=O)(=O)O)cc(C(=O)Nc2ccc(S(=O)(=O)O)cc2S(=O)(=O)O)c1)Nc1cc(C(=O)Nc2ccc(S(=O)(=O)O)cc2S(=O)(=O)O)cc(C(=O)Nc2ccc(S(=O)(=O)O)cc2S(=O)(=O)O)c1 [NF449, 4,4′,4″,4′″-[carbonyl-bis[imino-5,1,3-benzenetriylbis-{carbonylimino}]]tetrakis-{benzene-1,3-disulfonic acid}]
FGF2-mediated inhibition of [35S]sulfate incorporation (loss of sulfated proteoglycans) [1]: completely rescued
FGF2-mediated inhibition of [35S]sulfate incorporation (loss of sulfated proteoglycans) [1, 5]: reversed
inhibition of FGFR3 kinase activity ([2]; 0.1-30 μM range, FIG. 4b): some inhibition of FGFR3 kinase activity at all concentrations
FGFR3-mediated tyrosine phosphorylation of STAT1 ([2]; 5-30 μM NF449 concentration range, FIG. 4a): inhibited at all concentrations
concentration necessary to achieve more than 50% inhibition of FGFR3 kinase activity ([2]; FIG. 4b, densitometry P-STAT1/STAT1): ≥ 2 µM
effect on FGFR3 kinase activity (in words) [2]: inhibited the FGFR3-mediated tyrosine phosphorylation of STAT1
effect on FGFR3 kinase activity (in words) [2, 5]: inhibited
concentration range inhibiting FGFR3 kinase activity ([2]; comparison with SU5402): 2 to 20 µM
rescue (reversal) of the growth-arrest phenotype ([3]; 25 μM NF449, detailed cell-growth experiments, FIG. 1a, 72 hours): ~70%
active concentration range in the RCS growth-arrest assay ([3]; FGF2 5 ng/ml, 72 hours, FIG. 1a): 8 to 30 µM
rescue of the FGF2-mediated RCS growth-arrest ([3]; FIG. 1b, each agent alone, 72 hours): ~50%
effect on FGF2/FGFR3-mediated growth arrest (in words) ([3]; RCS chondrocytes): more potently that CNP
effect on FGF2/FGFR3-mediated growth arrest (in words) ([3]; RCS chondrocytes, listed as 4,4′,4″,4′″-[carbonyl-bis[imino-5,1,3-benzenetriyl bis-{carbonylimino}]]tetrakis): reversal of this phenotype
cell toxicity ([3]; RCS chondrocytes, throughout active concentration range (8-30 μM), listed as 4,4′,4″,4′″-[carbonyl-bis[imino-5,1,3-benzenetriyl bis-{carbonylimino}]]tetrakis): lack of significant
concentration range inhibiting RCS growth arrest ([3]; comparison with SU5402): 2 to 20 µM
concentration needed to inhibit GSA [4]: 0.14 µM
